Data set [1] in a line: Solubility in sodium phosphate buffer. In kind it is physicochemical.
For another data set, the target named is T1, human sEH (Homo sapiens, UniProt P34913).
T1 sequence (P34913 1-555): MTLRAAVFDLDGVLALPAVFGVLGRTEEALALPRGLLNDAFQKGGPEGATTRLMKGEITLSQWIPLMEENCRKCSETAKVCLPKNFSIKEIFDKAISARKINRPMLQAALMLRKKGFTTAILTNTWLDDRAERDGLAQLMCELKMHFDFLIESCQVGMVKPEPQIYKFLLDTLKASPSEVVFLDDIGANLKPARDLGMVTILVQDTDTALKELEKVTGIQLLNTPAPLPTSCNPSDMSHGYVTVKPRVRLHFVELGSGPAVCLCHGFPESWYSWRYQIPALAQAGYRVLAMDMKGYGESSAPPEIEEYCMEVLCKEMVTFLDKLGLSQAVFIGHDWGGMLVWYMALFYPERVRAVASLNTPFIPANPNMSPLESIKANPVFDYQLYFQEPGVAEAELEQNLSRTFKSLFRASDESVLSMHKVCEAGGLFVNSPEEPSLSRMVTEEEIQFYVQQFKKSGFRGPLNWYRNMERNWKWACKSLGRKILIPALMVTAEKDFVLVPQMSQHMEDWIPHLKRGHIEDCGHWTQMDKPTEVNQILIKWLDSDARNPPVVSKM
The data set is described as follows: Inhibition of human sEH, kinetic fluorescent assay.

The conditions of data set [2]: cited from earlier work.

Consider 4 compounds from publication PMC7494652 (Bioorganic & medicinal chemistry letters, 2020).

Like-named read-outs stand apart in the source and are kept apart here.

With `CC1(C)[C@H]2CC[C@]1(C)C(NC(=O)Nc1ccccc1F)C2` (mixture of isomers) [(S)-2b], the solubility (usually the concentration that dissolves in the medium under given conditions) in data set [1] (pH 7.4, aqueous buffer) stood at 225 ± 25 µM. Turning to `O=C(NC1CC2C=CC1C2)N[C@H]1CC[C@H](Oc2ccc(C(=O)O)cc2)CC1` (some centres unmarked) [1a], in data set [1] (sodium phosphate buffer), the “Fold more soluble than t-AUCB” value worked out at 2 fold and the “Solubility compared with t-TUCB” value is on record as “significantly more soluble”. With `O=C(NCCCCCCCCNC(=O)NCc1ccco1)NCc1ccco1` [5i], the IC50 (usually the concentration that inhibits the measured activity by half) against human sEH worked out at 214 nM. Take `O=C(Nc1ccc(OC(F)(F)F)cc1)N[C@H]1CC[C@H](Oc2ccc(C(=O)O)cc2)CC1` [t-TUCB]: in data set [2], the solubility is 5[19] μM.
